This is an account of results in patent publication US7786064B1, “Ionic liquids derived from functionalized anionic surfactants” (The Procter & Gamble Company, priority 2004, dated 2010).

The nature of the series: Water Miscibility Test. The format is physicochemical. The conditions noted are these: 0.5 g ionic liquid and 4.5 g de-ionized water, sonicated 1.5 hours; miscible if homogenous transparent system within 15 minutes of standing. The procedure:
“Hydrophilic ionic compound” or “water miscible ionic compound” as used herein refers to ionic compound that is partially or wholly miscible with water, i.e. it is capable of forming a visually homogenous or transparent mixture with water according to the Water Miscibility Test described herein. The water miscibility of an ionic liquid is measured by the following water miscibility test. A mixture of 0.5 g ionic liquid and 4.5 g de-ionized water are sonicated in a Bransonic Ultrasonic Bath (model # 1210R-MTH, 50/60 Hz, 117 volts, 1.3 AMPS) according to manufacture's specifications for 1.5 hours. Thereafter, if a homogenous transparent system results within 15 minutes of standing without agitation, then the ionic liquid is water miscible.
Regarding “Triisooctylmethyl Ammonium Mid-Chain Branched Dodecylsulfate [Example 2]”, the “Water Miscible?” value is listed as “No”.
As to “Tetraoctyl Ammonium Dodecylbenzenesulfonate [Example 3]”, the “Water Miscible?” value is given as “No”.
Turning to “Tetraoctyl Ammonium Mid-Chain Branched Dodecylsulfate [Example 1]”, the “Water Miscible?” value is on record as “No”.
